Laboratory results reported in patent US9452986B2, “6-heteroaryloxy- or 6-aryloxy-quinoline-2-carboxamides and method of use” (AbbVie Inc., priority 2014, dated 2016).
pIC50: −log10 of the molar value. Read-outs that look alike come from different tables or passages of the source.

Biological target: recombinant human Nav1.7 (Homo sapiens (Human), UniProt Q15858)
Assay: FRET-based membrane potential assay, recombinant human sodium channel Nav1.7
Assay type: cell-based
Procedure, shortened: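 Channel activation used veratridine at its EC80, set by a dilution curve each experiment, together with Leiurus scorpion venom, added 3 min after compound. Membrane-potential ratio signals from FLIPR Tetra in HEPES-buffered HBSS were fitted to a four-parameter Hill equation for percent inhibition and IC50.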

[1] = HEK293 cells stably expressing recombinant human Nav1.7, veratridine + scorpion venom depolarization, read-out: FRET-Membrane Potential Nav1.7 IC50
[2] = read-out: FRET-Membrane Potential Nav1.7 IC50

Sequence of recombinant human Nav1.7 (Q15858 whole entry): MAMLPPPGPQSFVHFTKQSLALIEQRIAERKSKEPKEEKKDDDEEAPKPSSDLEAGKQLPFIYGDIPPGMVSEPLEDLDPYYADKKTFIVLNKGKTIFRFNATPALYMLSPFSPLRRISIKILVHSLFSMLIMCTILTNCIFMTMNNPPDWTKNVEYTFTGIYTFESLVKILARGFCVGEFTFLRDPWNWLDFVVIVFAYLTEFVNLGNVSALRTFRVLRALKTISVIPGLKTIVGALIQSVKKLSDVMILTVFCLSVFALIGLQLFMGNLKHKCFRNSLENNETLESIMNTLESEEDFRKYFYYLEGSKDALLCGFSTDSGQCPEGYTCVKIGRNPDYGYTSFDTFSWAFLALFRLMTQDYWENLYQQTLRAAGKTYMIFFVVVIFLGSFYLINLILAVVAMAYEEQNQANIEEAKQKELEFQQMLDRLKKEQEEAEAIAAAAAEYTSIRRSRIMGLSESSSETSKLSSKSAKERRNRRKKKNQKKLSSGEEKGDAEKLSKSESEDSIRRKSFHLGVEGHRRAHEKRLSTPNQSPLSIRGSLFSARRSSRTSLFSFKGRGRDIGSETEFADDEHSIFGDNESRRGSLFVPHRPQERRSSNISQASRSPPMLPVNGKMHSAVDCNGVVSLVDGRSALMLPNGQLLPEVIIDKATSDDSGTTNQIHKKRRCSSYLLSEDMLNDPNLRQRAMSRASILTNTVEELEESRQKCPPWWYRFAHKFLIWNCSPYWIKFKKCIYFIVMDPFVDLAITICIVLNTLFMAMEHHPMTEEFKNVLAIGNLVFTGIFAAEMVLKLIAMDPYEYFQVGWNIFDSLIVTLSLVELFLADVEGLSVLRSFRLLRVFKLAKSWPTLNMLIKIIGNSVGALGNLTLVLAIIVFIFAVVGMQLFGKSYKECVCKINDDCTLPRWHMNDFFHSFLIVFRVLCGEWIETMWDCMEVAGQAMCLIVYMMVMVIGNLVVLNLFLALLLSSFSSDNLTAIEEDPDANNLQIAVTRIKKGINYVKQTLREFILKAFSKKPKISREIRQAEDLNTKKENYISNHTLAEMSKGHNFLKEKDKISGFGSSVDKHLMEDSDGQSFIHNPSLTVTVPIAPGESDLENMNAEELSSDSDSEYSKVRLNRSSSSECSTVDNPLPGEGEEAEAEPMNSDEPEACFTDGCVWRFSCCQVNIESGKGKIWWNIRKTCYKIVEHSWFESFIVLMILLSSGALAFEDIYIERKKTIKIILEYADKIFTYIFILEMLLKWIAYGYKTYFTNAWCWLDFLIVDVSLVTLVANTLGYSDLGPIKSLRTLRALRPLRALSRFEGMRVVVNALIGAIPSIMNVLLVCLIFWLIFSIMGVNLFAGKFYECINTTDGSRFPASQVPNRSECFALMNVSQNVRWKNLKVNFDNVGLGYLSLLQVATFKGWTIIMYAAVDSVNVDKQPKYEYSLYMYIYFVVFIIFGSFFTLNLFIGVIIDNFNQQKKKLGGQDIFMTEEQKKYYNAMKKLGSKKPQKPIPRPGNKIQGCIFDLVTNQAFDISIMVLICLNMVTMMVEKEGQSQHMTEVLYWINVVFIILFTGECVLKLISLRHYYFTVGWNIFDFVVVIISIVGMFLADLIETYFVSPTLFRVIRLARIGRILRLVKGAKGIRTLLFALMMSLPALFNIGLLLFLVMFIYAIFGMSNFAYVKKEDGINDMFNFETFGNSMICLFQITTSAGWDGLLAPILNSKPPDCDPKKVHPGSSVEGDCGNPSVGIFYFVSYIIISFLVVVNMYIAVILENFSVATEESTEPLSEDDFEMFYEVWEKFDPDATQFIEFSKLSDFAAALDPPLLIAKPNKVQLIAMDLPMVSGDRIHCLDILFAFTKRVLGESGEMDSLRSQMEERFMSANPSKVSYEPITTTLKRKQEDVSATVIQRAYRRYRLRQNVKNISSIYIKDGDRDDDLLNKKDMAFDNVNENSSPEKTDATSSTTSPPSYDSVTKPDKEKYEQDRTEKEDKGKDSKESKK

**Q.** `O=C(c1ccc2cc(Oc3ccc(C(F)(F)F)cn3)ccc2n1)N1CCC(CO)C1` (centres unmarked) [Example 266, [3-(hydroxymethyl)pyrrolidin-1-yl](6-{[5-(trifluoromethyl)pyridin-2-yl]oxy}quinolin-2-yl)methanone] was tested. Which pIC50 [1] did it give?
**A.** Its pIC50 is 5.24.

**Q.** `O=C(NC1CCS(=O)(=O)CC1)c1ccc2cc(Oc3ccc(C(F)(F)F)nc3)ccc2n1` [Example 535, N-(1,1-dioxidotetrahydro-2H-thiopyran-4-yl)-6-{[6-(trifluoromethyl)pyridin-3-yl]oxy}quinoline-2-carboxamide] was tested. Which pIC50 [1] did it give?
**A.** Its pIC50 is less than 4.70.

**Q.** With `CC(O)C(C)NC(=O)c1ccc2cc(Oc3ccc(C#N)cc3)ccc2n1` (centres unmarked) [Example 134, 6-(4-cyanophenoxy)-N-(3-hydroxybutan-2-yl)quinoline-2-carboxamide] as the molecule, how does the pIC50 [2] read?
**A.** Its pIC50 is 5.63.

**Q.** `CON=C1CCN(C(=O)c2ccc3cc(Oc4ccc(C(F)(F)F)cn4)ccc3n2)CC1` [Example 353, [4-(methoxyimino)piperidin-1-yl](6-{[5-(trifluoromethyl)pyridin-2-yl]oxy}quinolin-2-yl)methanone] was tested. Which pIC50 [2] did it give?
**A.** The pIC50 was 5.44.

**Q.** How did the pIC50 [2] turn out when `O=C(N[C@@H]1CC[C@H]2CN(Cc3ccccc3)C[C@H]21)c1ccc2cc(Oc3ccc(C(F)(F)F)cn3)ccc2n1` [Example 230, N-[(3aS,4R,6aR)-2-benzyloctahydrocyclopenta[c]pyrrol-4-yl]-6-{[5-(trifluoromethyl)pyridin-2-yl]oxy}quinoline-2-carboxamide] was run?
**A.** Its pIC50 is 6.59.

**Q.** `CC(NC(=O)c1ccc2cc(Oc3ccc(C(F)(F)F)cn3)ccc2n1)C(=O)N(C)C` (centres unmarked) [Example 579, N-[1-(dimethylamino)-1-oxopropan-2-yl]-6-{[5-(trifluoromethyl)pyridin-2-yl]oxy}quinoline-2-carboxamide] was tested. Which pIC50 [1] did it give?
**A.** Its pIC50 is 5.77.

**Q.** How did the pIC50 [1] turn out when `O=C(NC1COCC1O)c1ccc2cc(Oc3ccc(C(F)(F)F)cn3)ccc2n1` (centres unmarked) [Example 371, N-(4-hydroxytetrahydrofuran-3-yl)-6-{[5-(trifluoromethyl)pyridin-2-yl]oxy}quinoline-2-carboxamide] was run?
**A.** The pIC50 was 5.84.

**Q.** `O=C(c1ccc2cc(Oc3ccc(C(F)(F)F)cn3)ccc2n1)N1C[C@@H](O)[C@H](O)C1` (relative stereo) [Example 303, [trans-3,4-dihydroxypyrrolidin-1-yl](6-{[5-(trifluoromethyl)pyridin-2-yl]oxy}quinolin-2-yl)methanone] was tested. Which pIC50 [1] did it give?
**A.** Its pIC50 is 5.25.

**Q.** How did the pIC50 [1] turn out when `O=C(c1ccc2cc(Oc3ccc(C(F)(F)F)cn3)ccc2n1)N1CCN(CC(F)F)CC1` [Example 298, [4-(2,2-difluoroethyl)piperazin-1-yl](6-{[5-(trifluoromethyl)pyridin-2-yl]oxy}quinolin-2-yl)methanone] was run?
**A.** The pIC50 was 4.91.

**Q.** `CC1(C)CCN(C(=O)c2ccc3cc(Oc4ccc(C(F)(F)F)cn4)ccc3n2)C1` [Example 405, (3,3-dimethylpyrrolidin-1-yl)(6-{[5-(trifluoromethyl)pyridin-2-yl]oxy}quinolin-2-yl)methanone] was tested. Which pIC50 [1] did it give?
**A.** Its pIC50 is 5.85.

**Q.** How did the pIC50 [1] turn out when `O=C(c1ccc2cc(Oc3ccc(C(F)(F)F)cn3)ccc2n1)N1CC[C@@H](N2CCCCC2)C1` [Example 319, [(3R)-3-(piperidin-1-yl)pyrrolidin-1-yl](6-{[5-(trifluoromethyl)pyridin-2-yl]oxy}quinolin-2-yl)methanone] was run?
**A.** Its pIC50 is 6.55.

**Q.** `N#Cc1ccc(Oc2ccc3nc(C(=O)N[C@H]4CCS(=O)(=O)C4)ccc3c2)cc1` [Example 159, 6-(4-cyanophenoxy)-N-[(3S)-1,1-dioxidotetrahydrothiophen-3-yl]quinoline-2-carboxamide] was tested. Which pIC50 [2] did it give?
**A.** Its pIC50 is 6.14.

**Q.** `O=C(c1ccc2cc(Oc3ccc(C(F)(F)F)cn3)ccc2n1)N1C[C@H](CO)C[C@H](CO)C1` [Example 307, [cis-3,5-bis(hydroxymethyl)piperidin-1-yl](6-{[5-(trifluoromethyl)pyridin-2-yl]oxy}quinolin-2-yl)methanone] was tested. Which pIC50 [1] did it give?
**A.** Its pIC50 is 4.84.

**Q.** `O=C(N[C@H]1CCC[C@H]1O)c1ccc2cc(Oc3ccc(C(F)(F)F)cn3)ccc2n1` [Example 401, N-[(1S,2R)-2-hydroxycyclopentyl]-6-{[5-(trifluoromethyl)pyridin-2-yl]oxy}quinoline-2-carboxamide] was tested. Which pIC50 [1] did it give?
**A.** Its pIC50 is 6.40.

**Q.** How did the pIC50 [1] turn out when `O=C1CCC2N1CCCN2C(=O)c1ccc2cc(Oc3ccc(C(F)(F)F)cn3)ccc2n1` (centres unmarked) [Example 614, 1-[(6-{[5-(trifluoromethyl)pyridin-2-yl]oxy}quinolin-2-yl)carbonyl]hexahydropyrrolo[1,2-a]pyrimidin-6(2H)-one] was run?
**A.** Its pIC50 is 4.91.

**Q.** `O=C(c1ccc2cc(Oc3ccc(C(F)(F)F)cn3)ccc2n1)N1CC[C@@H](O)[C@H](F)C1` (relative stereo) [Example 195, [trans-3-fluoro-4-hydroxypiperidin-1-yl](6-{[5-(trifluoromethyl)pyridin-2-yl]oxy}quinolin-2-yl)methanone] was tested. Which pIC50 (FRET-Membrane Potential Nav1.7 IC50) did it give?
**A.** The pIC50 was 5.12.

**Q.** `O=C(NCC1C[S+]([O-])C1)c1ccc2cc(Oc3ccc(C(F)(F)F)cn3)ccc2n1` (centres unmarked) [Example 601, N-[(1-oxidothietan-3-yl)methyl]-6-{[5-(trifluoromethyl)pyridin-2-yl]oxy}quinoline-2-carboxamide] was tested. Which pIC50 [1] did it give?
**A.** The pIC50 was 5.60.

**Q.** With `N#Cc1ccc(Oc2ccc3nc(C(=O)NC(CO)CO)ccc3c2)cc1` [Example 126, 6-(4-cyanophenoxy)-N-(1,3-dihydroxypropan-2-yl)quinoline-2-carboxamide] as the molecule, how does the pIC50 [1] read?
**A.** The pIC50 was 5.06.

**Q.** `O=C(c1ccc2cc(Oc3ccc(C(F)(F)F)cn3)ccc2n1)N1CCC(F)(COc2cccnc2)C1` (centres unmarked) [Example 490, {3-fluoro-3-[(pyridin-3-yloxy)methyl]pyrrolidin-1-yl}(6-{[5-(trifluoromethyl)pyridin-2-yl]oxy}quinolin-2-yl)methanone] was tested. Which pIC50 [1] did it give?
**A.** The pIC50 was 5.85.

**Q.** `O=C(N[C@H]1CS(=O)(=O)C[C@H]1O)c1ccc2cc(Oc3ccc(C(F)(F)F)nc3)ccc2n1` [Example 537, N-[(3R,4S)-4-hydroxy-1,1-dioxidotetrahydrothiophen-3-yl]-6-{[6-(trifluoromethyl)pyridin-3-yl]oxy}quinoline-2-carboxamide] was tested. Which pIC50 [1] did it give?
**A.** The pIC50 was 5.57.

**Q.** With `CCN(CC)C(=O)CCNC(=O)c1ccc2cc(Oc3ccc(C(F)F)cn3)ccc2n1` [Example 467, N-[3-(diethylamino)-3-oxopropyl]-6-{[5-(difluoromethyl)pyridin-2-yl]oxy}quinoline-2-carboxamide] as the molecule, how does the pIC50 [1] read?
**A.** Its pIC50 is 6.28.

**Q.** `O=C(NCC(=O)N1C[C@@H](O)[C@H](O)C1)c1ccc2cc(Oc3ccc(C(F)(F)F)cn3)ccc2n1` [Example 563, N-{2-[(3R,4R)-3,4-dihydroxypyrrolidin-1-yl]-2-oxoethyl}-6-{[5-(trifluoromethyl)pyridin-2-yl]oxy}quinoline-2-carboxamide] was tested. Which pIC50 [1] did it give?
**A.** Its pIC50 is less than 4.70.

**Q.** With `N#Cc1ccc(Oc2ccc3nc(C(=O)N4CCC(N5CCOCC5)CC4)ccc3c2)cc1` [Example 138, 4-[(2-{[4-(morpholin-4-yl)piperidin-1-yl]carbonyl}quinolin-6-yl)oxy]benzonitrile] as the molecule, how does the pIC50 [1] read?
**A.** The pIC50 was 5.61.

**Q.** With `CC(C)(C)CC(=O)N1CCN(C(=O)c2ccc3cc(Oc4ccc(C(F)(F)F)cn4)ccc3n2)CC1` [Example 309, 3,3-dimethyl-1-{4-[(6-{[5-(trifluoromethyl)pyridin-2-yl]oxy}quinolin-2-yl)carbonyl]piperazin-1-yl}butan-1-one] as the molecule, how does the pIC50 [1] read?
**A.** The pIC50 was 5.45.

**Q.** With `O=C(NCC(=O)N1CCC1)c1ccc2cc(Oc3ccc(C(F)(F)F)cn3)ccc2n1` [Example 571, N-[2-(azetidin-1-yl)-2-oxoethyl]-6-{[5-(trifluoromethyl)pyridin-2-yl]oxy}quinoline-2-carboxamide] as the molecule, how does the pIC50 [2] read?
**A.** Its pIC50 is 6.35.

**Q.** With `N#Cc1ccc(Oc2ccc3nc(C(=O)N[C@H]4CCC[C@H](O)C4)ccc3c2)cc1` [Example 132, 6-(4-cyanophenoxy)-N-[(1S,3S)-3-hydroxycyclohexyl]quinoline-2-carboxamide] as the molecule, how does the pIC50 [1] read?
**A.** The pIC50 was 5.57.
